Measurements reported in patent publication US20080311657A1, “Killing Human Lymphoma and Leukemia Cancer Cells and Tcr-Activated Normal Human Cells By Dopamine D1r Agonists” (priority 2005, published 2008).

Tests used:
Format in all cases: cell-based
[1] = system: Human Burkitt's B-cell lymphoma (Raji) cells; experiment: Number of living cells counted by flow cytometry (FACSort) after D1R agonist; details: 10^−3M-10^−6M, 3 days
Description: (§1) Afterwards, the microtiter plates were placed in an incubator (37° C., humidified incubator, 5% CO2) for 3 days. Then, the number of living cells was evaluated by flow cytometry (the cells were counted by FACsort for a fixed time length of 1 min, in which 100 microliter of each sample was tested).
(§2) Cell viability was tested afterwards.

[2] = system: resting normal human T-cells; experiment: as above
Description: as §1
(§3) FIGS. 31A and B are graphs showing that A 77636 hydrochloride kills much more TCR-activated (FIG. 31B) than resting normal (FIG. 31A) human T-cells. […] The cells were then transferred to the incubator for 72 hr incubation. At the end of the 72 hr incubation, the number of living cells in each well was evaluated by flow cytometry (the cells were counted by FACsort for a fixed time length of 1 min, in which 100 microliter of each sample was tested).
as §2

[3] = system: TCR-activated normal human T-cells; experiment: as above; details: 10^−5 M, 72 hr
Description: as §3
Non-tissue culture treated 24-well plates (Falcon, Franklin Lakes, N.J.) were coated overnight at 4° C. with anti-CD3 and anti-CD28 monoclonal antibodies (mabs) (BD Pharmingen, San Jose, Calif.); ([…] in PBS). The wells were then washed with PBS, blocked for 1 hour at 37° C. (PBS/1% BSA), and washed again. The freshly purified normal human T-cells were resuspended in their respective fresh media and seeded in the anti-CD3/CD28 coated wells (1×10^6 per well), and the plates were incubated for 72 hours (37° C., humidified incubator, 5% CO2). Then, the cells and their media were collected from each well, transferred into 50 ml tubes, centrifuged (1200 rpm, 10 minutes) and both the TCR-activated cells and their culture media were collected and transferred into clean separate tubes.
as §2

[4] = system: Human T-cell leukemia (Jurkat) cells; experiment: as above
Description: as §1, with “tested). Of note, A 77636 hydrochloride is an orally-active D1R agonist, according to the manufacturer (Tocris).” for “tested).”
as §1
The experiment was designed to test the effect of exposing the cells to the D1R agonist for 1 min, 15 min, 1 hr or 72 hr. Thus, 1 min, or 15 min or 1 hr after the addition of the D1R agonist, the corresponding cells were transferred into tubes, centrifuged (1000 rpm for 10 min); and the supernatant was removed. […] Thus, its medium was not replaced, and these cells and remained as such in the incubator for 72 hr. At the end of the 72 hr incubation, the number of living cells was evaluated by flow cytometry (the cells were counted by FACsort for a fixed time length of 1 min, in which 100 microliter of each sample was tested).
as §2
For this purpose, the Jurkat T-cell leukemia line, the HuT-78 human T-lymphoma (cutaneous “Sezary” T-lymphoma) line, and the K-562 human Chronic-Myeloid Leukemia (CML) and Daudi Human B-lymphoma (Burkitt's lymphoma) lines were seeded in tissue culture wells (0.5 million cells/0.5 ml/well).
(§4) Cell survival/death was evaluated 3 days later by counting the number of living cells, using flow cytometry.

[5] = system: Human cutaneous Sezary T-lymphoma cells (HuT-78); experiment: as above; details: 10^−3M-10^−6M, 3 days
Description: (§5) Human cutaneous Sezary T-lymphoma cells (HUT-78) were seeded in 96 well plates (0.5 ml per well of 0.5 million cells/ml) and A 77636 hydrochloride was added and diluted 1:00 into the wells at starting concentrations of 10^−1M-10^−4M, so that the final concentration range tested was 10^−3M-10^−6M. Afterwards, the microtiter plates were placed in an incubator (37° C., humidified incubator, 5% CO2) for 3 days. Then, the number of living cells was evaluated by flow cytometry (the cells were counted by FACsort for a fixed time length of 1 min, in which 100 microliter of each sample was tested).
as §5, with “68930” for “77636”
as §5, with “SKF 38393 hydrobromide” for “A 77636 hydrochloride”
Cell viability was tested afterwards. […]
as §4

[6] = system: Human Burkitt's B-lymphoma cells (Raji); experiment: Cell death by LDH release (CytoTox 96); details: 10^−4M
Description: Human Burkitt's B-lymphoma cells (Raji) were seeded in 96 well plates (0.5 ml per well of 0.5 million cells/ml) and A 77636 hydrochloride was added and diluted 1:00 into the wells, at a fixed starting concentration of 10^−2M, so that the final concentration tested was 10^−4M. The cells were then transferred to an incubator (37° C., humidified incubator, 5% CO2) for 1 min, 10 min, 30 min, 60 min or 120 min incubation.

**Q.** `Cl.NC[C@@H]1O[C@H](C23CC4CC(CC(C4)C2)C3)Cc2c1ccc(O)c2O` [A 77636 hydrochloride, (1R-cis)-1-(aminomethyl)-3,4-dihydro-3-tricyclo[3.3.1.13,7]dec-1-yl-[1H]-2-benzopyran-5,6-diol hydrochloride] was tested. Which “Cell death by number of living cells (FIGS. 19-21), in words” value [1] did it give?
**A.** induces marked cell death

**Q.** And the “Killing effect by number of living cells (FIGS. 25-27), in words” value ([2]; 10^−3M-10^−6M, 3 days)?
**A.** significantly milder killing effect

**Q.** What about the “% of cells killed” value ([2]; 10^−5 M, 72 hr) of the same molecule?
**A.** 12%

**Q.** What about the “% of cells killed” value [3] of the same molecule?
**A.** 46%

**Q.** And the “Killing of TCR-activated relative to resting normal human T-cells” value [3]?
**A.** 3.8 fold

**Q.** What about the “Cell death by number of living cells (FIGS. 10-12), in words” value ([4]; 10^−3M-10^−6M, 3 days) of the same molecule?
**A.** induces marked cell death

**Q.** And the “Killing, in words” value ([4]; 10^−4M, 1 min incubation then washed, living cells counted 3 days later)?
**A.** not sufficient to cause marked cell death

**Q.** And the “Killing, in words” value ([4]; 10^−4M, 15 minutes then washed, living cells counted 3 days later)?
**A.** significant

**Q.** And the “% of the cells killed (maximum)” value ([4]; 10^−4M, 1 hour of incubation then washed, living cells counted 3 days later)?
**A.** 94%

**Q.** What about the “Killing, in words” value ([4]; 10^−4M, 72 hour incubation) of the same molecule?
**A.** no further effect

**Q.** What about the “Speed of cell death by number of living cells (FIG. 30), in words” value ([4]; 10^−4M, exposure 1 min, 15 min, 1 hr or 72 hr) of the same molecule?
**A.** very rapid death

**Q.** What about the “Cell death by number of living cells (FIGS. 13-15), in words” value [5] of the same molecule?
**A.** induces marked cell death

**Q.** And the “Exposure time at which extent of cell death reaches a plateau” value ([6]; LDH release)?
**A.** 1 h

**Q.** And the “Elevation in the release of LDH” value ([6]; exposure for 1 minute)?
**A.** ≈ 3 fold

**Q.** And the “Speed of cell death by LDH release (FIG. 28), in words” value ([6]; 1, 10, 30, 60 or 120 min)?
**A.** very rapid death
